Test results as given in patent publication US3943172A, “Derivatives of 2-amino-(1,2,3,4-tetrahydronaphthalene), the preparation and use thereof” (priority 1972, dated 1976).

How the values were obtained:
[1] = tested on: premature heart contractions; test: oral antiarrhythmic activity in rats using aconitine (dose of aconitine to first extrasystoles); type: in vivo; conditions: 75 mg/kg, 75 minutes before aconitine perfusion, acid addition salts; for % Activity versus Lidocaine: relative to lidocaine; for % Activity versus Procainamide: relative to procainamide
Protocol: The method used for these tests is described hereafter:
Male or female rats with a body-weight ranging from 380 to 450 g.
3.12 μg aconitine nitrate/1 ml physiological saline.
Solution of the compound to be tested:
0.75% in distilled water.
Six random selected animals are required for each compound to be tested. The compound is administered by oral route at the dose of 75 mg/kg (1 ml of the 0.75% solution/100 g of body-weight) 75 minutes before the intravenous perfusion of the aconitine solution is initiated.
Control groups of animals are treated only with distilled water (1 ml/100 g).
60 minutes after the administration of the compound to be tested, the animals are anesthesized by an intraperitoneal injection of Pentobarbital (50 mg/kg) and the jugular vein is dissected.
A catheter is introduced in the vein and fixed by a ligature.
The ECG (D II derivation) is then continuously recorded. The perfusion of the aconitine solution is started 75 minutes after the administration of the compound to be tested.
The volume delivered by the injection device being 0.287 ml/minute, the dose of aconitine nitrate administered is 0.895 μg/minute (0.20 - 0.24 μg/100 g/minute according to the minimal and maximal weight of the animals).
The experience is stopped as soon as the first extrasystoles are appearing and the time elapsed from the beginning of the perfusion is noted.
The results are expressed as the mean total dose of aconitine injected in a group of animals.
The relative activity between a tested compound and a reference substance (lidocaine, procainamide) is computed in the following way: [formula] where: A(x) = activity of tested compound X (in %)
X = mean dose of aconitine in the animals treated by compound X
C = mean dose of aconitine injected in the untreated animals (controls)
R = mean dose of aconitine injected in the animals treated by the reference substances.

[2] = tested on: tachycardias and fibrillation of ventricular origin; conditions: cited from earlier work; for oral activity: known antiarrhythmic agents, in words

Row | SMILES | % Activity versus Lidocaine [1] | % Activity versus Procainamide [1] | side effects [2] | oral activity [2]
1 | CCN(CC)CCCN(c1ccccc1)C1CCc2ccccc2C1 (stereo not drawn) [2 H2 H N-diethyl, 2-[N-phenyl-N-(γ-diethylaminopropyl)]-amino-(1,2,3,4-tetrahydronaphthalene)] | 563% | 719% | – | –
2 | c1ccc(N(CCCN2CCCCC2)C2CCc3ccccc3C2)cc1 (stereo not drawn) [2 H2 H piperidino, 2-[N-phenyl-N-(γ-piperidinopropyl)]-amino-(1,2,3,4-tetrahydronaphthalene)] | 62% | 78% | – | –
3 | CCNCCCN(c1ccccc1)C1CCc2ccccc2C1 (stereo not drawn) [2 H2 H NH-ethyl, 2-[N-phenyl-N-(γ-ethylaminopropyl)]-amino-(1,2,3,4-tetrahydronaphthalene)] | 703% | 897% | – | –
4 | CCN(CC)CCN(c1ccccc1)C1CCc2ccccc2C1 (stereo not drawn) [1 H2 H N-diethyl, 2-[N-phenyl-N-(β-diethylaminoethyl)]-amino(1,2,3,4-tetrahydronaphthalene)] | 439% | 560% | – | –
5 | CNCCC(=O)N(c1ccccc1)C1CCc2ccccc2C1 (stereo not drawn) [2 0 H NH-methyl, 2-[N-phenyl-N-(β-methylaminopropionyl)]-amino-(1,2,3,4-tetrahydronaphthalene)] | 769% | 982% | – | –
6 | COc1ccc2c(c1)CCC(N(CCN1CCCCC1)c1ccccc1)C2 (stereo not drawn) [1 H2 OCH3 piperidino, 2-[N-phenyl-N-(β-piperidinoethyl)]-amino-6-methoxy-(1,2,3,4-tetrahydronaphthalene)] | 103% | 131% | – | –
7 | CCN(CC)CCN(c1ccccc1)C1CCc2cc(OC)ccc2C1 (stereo not drawn) [1 H2 OCH3 N-diethyl, 2-[N-phenyl-N-(β-diethylaminoethyl)]-amino-6-methoxy-(1,2,3,4-tetrahydronaphthalene)] | 173% | 220% | – | –
8 | COc1ccc2c(c1)CCC(N(CCN(C)C)c1ccccc1)C2 (stereo not drawn) [1 H2 OCH3 N-dimethyl, 2-[N-phenyl-N-(β-dimethylaminoethyl)]-amino-6-methoxy-(1,2,3,4-tetrahydronaphthalene)] | 57% | 72% | – | –
9 | CCN(CC)CCCN(c1ccccc1)C1CCc2cc(OC)ccc2C1 (stereo not drawn) [2 H2 OCH3 N-diethyl, 2-[N-phenyl-N-(γ-diethylaminopropyl)]-amino-6-methoxy-(1,2,3,4-tetrahydronaphthalene)] | 96% | 123% | – | –
10 | c1ccc(N(CCCN2CCCC2)C2CCc3ccccc3C2)cc1 (stereo not drawn) [2 H2 H pyrrolidino, 2-[N-phenyl-N-(γ-pyrrolidinopropyl)]-amino-(1,2,3,4-tetrahydronaphthalene)] | 268% | 342% | – | –
11 | CCN(CC)CCNC(=O)c1ccc(N)cc1 [procainamide] | – | – | hypotension | too short
12 | CCN(CC)CC(=O)Nc1c(C)cccc1C [lidocaine] | – | – | – | too low
13 | CN(C)CCCN(c1ccccc1)C1CCc2ccccc2C1 (stereo not drawn) [2 H2 H N-dimethyl, 2-[N-phenyl-N-(γ-dimethylaminopropyl)]-amino-(1,2,3,4-tetrahydronaphthalene)] | 41% | 52% | – | –
14 | CNCCCN(c1ccccc1)C1CCc2ccccc2C1 (stereo not drawn) [2 H2 H NH-methyl, 2-[N-phenyl-N-(γ-methylaminopropyl)]-amino-(1,2,3,4-tetrahydronaphthalene)] | 288% | 368% | – | –
